Counter-ions that a name gives are not always drawn.
Tests used:
[1] = molecular target: T1, Neuraminidase (from Clostridium perfringens, Type V) immobilized on magnetic beads (NA-MBs) (Clostridium perfringens, UniProt A0A0H2YQR1); format: binding; conditions: 5.0 mg/mL ethyl acetate extract fraction of Flos Lonicerae, 37 °C, 1 h
[2] = molecular target: T1, Neuraminidase (from Clostridium perfringens, Type V) immobilized on magnetic beads (NA-MBs); format: biochemical; conditions: 40 μM MUNANA, 37 °C, 3 min
[3] = molecular target: T1, Neuraminidase (from Clostridium perfringens, Type V) immobilized on magnetic beads (NA-MBs); experiment: biochemical; conditions: for inhibition at 50 µM: 0.05 h, read-out: Inhibitory ratio (%)
[4] = system: NA; conditions: cited from earlier work; for binder / non-binder for NA: known active/inactive compounds for NA
[5] = molecular target: T1, Neuraminidase (from Clostridium perfringens, Type V) immobilized on magnetic beads (NA-MBs); format: biochemical
[6] = system: NA; conditions: read-out: IC50, literature reported value; cited from earlier work

T1 sequence (A0A0H2YQR1 42-694 limits assumed): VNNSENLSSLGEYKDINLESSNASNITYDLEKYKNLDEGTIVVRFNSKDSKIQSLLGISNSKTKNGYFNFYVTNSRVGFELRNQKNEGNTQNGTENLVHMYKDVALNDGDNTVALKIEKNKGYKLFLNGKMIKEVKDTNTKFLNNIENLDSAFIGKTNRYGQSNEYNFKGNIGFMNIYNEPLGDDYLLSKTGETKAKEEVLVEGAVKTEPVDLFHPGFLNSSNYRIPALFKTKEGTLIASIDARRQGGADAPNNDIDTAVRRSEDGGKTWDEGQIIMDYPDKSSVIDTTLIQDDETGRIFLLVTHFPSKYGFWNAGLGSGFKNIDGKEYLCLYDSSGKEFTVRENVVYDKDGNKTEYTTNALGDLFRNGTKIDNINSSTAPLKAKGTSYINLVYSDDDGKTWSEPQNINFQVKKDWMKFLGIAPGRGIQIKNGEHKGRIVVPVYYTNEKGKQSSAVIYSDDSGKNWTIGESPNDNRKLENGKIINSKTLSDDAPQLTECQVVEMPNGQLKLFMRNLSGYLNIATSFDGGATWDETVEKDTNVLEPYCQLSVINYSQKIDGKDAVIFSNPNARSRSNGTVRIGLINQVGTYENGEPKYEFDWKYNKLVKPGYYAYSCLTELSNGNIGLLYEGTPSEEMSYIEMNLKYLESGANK

## O=C(/C=C/c1ccc(O)c(O)c1)OC1CC(O)(C(=O)O)CC(O)C1OC(=O)/C=C/c1ccc(O)c(O)c1 (centres unmarked) [3,4-di-O-caffeoylquinic acid]
[1]
  Retention on NA-MBs in ligand fishing: retained until the final elution steps
[2]
  IC50: 68.3 ± 3.1 µM

## O=C(/C=C/c1ccc(O)c(O)c1)OC1CC(O)(C(=O)O)CC(OC(=O)/C=C/c2ccc(O)c(O)c2)C1O (centres unmarked) [3,5-di-O-caffeoylquinic acid]
[1]
  Retention on NA-MBs in ligand fishing: retained until the final elution steps
[2]
  IC50: 61.2 ± 1.5 µM

## O=C1CCC[C@@H]2[C@H]3CCC[N@+]4([O-])CCC[C@@H](CN12)[C@@H]34 [Ammothamnine]
[3]; 50 μM tested compound, 40 μM MUNANA, 5 mg NA-MBs, 37 °C, 3 min, 3% DMSO
  Inhibitory ratio (%): < 1%

## Nc1cc[nH]c(=O)n1 [Cytosine]
[3]
  inhibition at 50 µM: < 1%

## COc1ccc2c3c1O[C@H]1C[C@@H](O)C=C[C@@]31CCN(C)C2 [Galantamine, reference compound]
[3]
  inhibition at 50 µM: < 1%

## Nc1nc2c(ncn2[C@@H]2O[C@H](CO)[C@@H](O)[C@H]2O)c(=O)[nH]1 [Guanosine]
[3]
  inhibition at 50 µM: < 1%

## O=c1c(O[C@@H]2O[C@H](CO)[C@H](O)[C@H](O)[C@H]2O)c(-c2ccc(O)c(O)c2)oc2cc(O)cc(O)c12 [Hyperoside]
[3]
  inhibition at 50 µM: 32.3 ± 2.7%

## COc1cc(-c2oc3cc(O)cc(O)c3c(=O)c2O)ccc1O [Isorhamnetin]
[3]
  inhibition at 50 µM: 46.8 ± 5.8%

## COc1ccc(-c2oc3cc(O)cc(O)c3c(=O)c2O)cc1 [Kaempferide]
[3]
  inhibition at 50 µM: 43.6 ± 4.9%

## O=c1c(O)c(-c2ccc(O)cc2)oc2cc(O)cc(O)c12 [Kaempferol]
[3]
  inhibition at 50 µM: 51.2 ± 6.1%

## O[C@H]1[C@H]2c3cc4c(cc3CN3CCC(=C[C@@H]1O)[C@H]23)OCO4 [Lycorine]
[4]
  binder / non-binder for NA: reported non-binders
[3]
  inhibition at 50 µM: < 1%

## CC(=O)N[C@H]1[C@H]([C@H](O)[C@H](O)CO)O[C@@](Oc2ccc3c(C)cc(=O)oc3c2)(C(=O)O)C[C@@H]1O [MUNANA, 2′-(4-methylumbelliferyl)-α-D-N-acetylneuraminic acid sodium salt hydrate]
[5]
  Km: 46.5 ± 3.68 µM
[4]; substrate on NA-immobilized capillary microreactor
  Km: 137 ± 10.8 µM

## CCOC(=O)C1=C[C@@H](OC(CC)CC)[C@H](NC(C)=O)[C@@H](N)C1 [Oseltamivir]
[6]
  IC50: […]
[4]
  binder / non-binder for NA: known binder
[3]
  inhibition at 50 µM: 74.9 ± 3.5%

## O=C1CCC[C@@H]2[C@H]3CCC[N+]4([O-])CCC[C@@H](CN12)[C@@H]34 (some centres unmarked) [Oxymatrine]
[3]
  inhibition at 50 µM: < 1%

## O=c1c(O)c(-c2ccc(O)c(O)c2)oc2cc(O)cc(O)c12 [Quercetin]
[3]
  inhibition at 50 µM: 48.1 ± 3.4%

## Cc1c[nH]c(=O)[nH]c1=O [Thymine]
[3]
  inhibition at 50 µM: < 1%

## O=c1cc(-c2ccc(O)c(O)c2)oc2cc(O[C@@H]3O[C@H](CO)[C@@H](O)[C@H](O)[C@H]3O)cc(O)c12 [luteolin-7-O-β-D-glucoside]
[1]
  Retention on NA-MBs in ligand fishing: retained until the final elution steps
[2]
  IC50: 76.5 ± 3.9 µM

## O=c1cc(-c2ccc(O)c(O)c2)oc2cc(O)cc(O)c12 [luteolin]
[1]
  Retention on NA-MBs in ligand fishing: retained until the final elution steps

## O=C1CCC[C@@H]2[C@H]3CCCN4CCC[C@@H](CN12)[C@@H]34 [matrine]
[4]
  binder / non-binder for NA: reported non-binders

— article PMC6261295 (Journal of chromatography. A, 2018)
